The test system of one data set is E. coli W3110. The data set is described as follows: uptake of 14C-substrate (thymine, adenine, glutamic acid, alanine) by E. coli W3110. The following applies: for adenine incorporation / alanine incorporation / glutamic acid incorporation / thymine incorporation: E. coli W3110. The protocol: (§1) In the Table, "glucose" was added as an energy source for cells in which propagation had been terminated and "CM" (Chloramphenicol) was added so as to terminate propagation of cells. […] Separately, instead of this composition of the foregoing additives, a composition comprising glucose, CM, 14C-substrate and colistin was added and cells were similarly obtained. The colistin was added for a comparison system to the Ba-added system because colistin is a permeation inhibitor for cell membranes (antibiotic substance).
(§2) In Table 2, the value of each numerator means a value measured by a scintillation counter and the value of each denominator means a ratio (%) to the value of the control (100%).

The subject of a further data set is E. coli S. The data set is described as follows: uptake of 14C-substrate (tryptophane) by E. coli S. As to conditions: for tryptophane incorporation: E. coli S. Here is the method:
as §1, §2

The subject of data set [1] is Escherichia coli. The data set is described as follows: influence on uptake of amino acids and nucleic acid bases by Escherichia coli (incl. time course, FIGS. 1 and 2). The following applies: in words. The protocol:
as §1

Data set [2] has as its system Escherichia coli. In words: outflow of incorporated substrates from Escherichia coli cells (FIG. 3). The following applies: FIG. 3, in words.
The subject of data set [3] is Adeno-carcinoma 755. The data set is described as follows: Test 1: tumor weight, subcutaneously implanted Adeno-carcinoma 755. The class given is in vivo, mice (first filial generation of C57BL/6 and DBA/2). The following applies: 11th day. The protocol: (§3) As the experimental animal, there were used four mice of the first filial generation of C57BL/6 and DBA/2, which were 6 to 7 weeks old. A carcinoma (Adeno-carcinoma 755) was implanted on the hypoderm in the back by using an implanting needle. […] This treatment was conduced once a day for 9 days. On the 11th day from the implantation, the weight of the tumor was measured with respect to each group to obtain the results shown in Table 3.

The subject of data set [4] is Adeno-carcinoma 755. In words: Test 2: tumor weight, Adeno-carcinoma 755, intraperitoneal benzaldehyde. The data set is classed as in vivo, mice (first filial generation of C57BL/6 and DBA/2). As to conditions: 11th day. The protocol: as §3
The treatment was continued for 9 days. On the 11th day from the implantation, the tumor weight was measured with respect to each group to obtain results shown in Table 4.

In data set [5] the test system is Ehrlich carcinoma. In words: Test 3: tumor weight, subcutaneously implanted Ehrlich carcinoma (solid tumor). The data set is classed as in vivo, mice of RFVL. The protocol:
Ten mice of RFVL which were 4 to 5 weeks old were used as the experiemental animals, and about 10^6 cells/0.2 ml of Ehrlich carcinoma were implanted subcutaneously at the right armpit. […] This treatment was continued for 9 days. On the 11th day from the tumor implantation, the tumor weight was measured with respect to each group to obtain results shown in Table 5. In each of control and treated groups, the increase of the body weight in the tested mice during the test was 3.5 g as the average value determined on 10 mice.

Data set [6] relates to Ehrlich carcinoma. The data set is described as follows: Test 4: survival effect, intraperitoneally implanted Ehrlich carcinoma (FIG. 4). The data set is classed as in vivo, mice of RFVL. The following applies: 10 days. Here is the method: Ten mice of RFVL which were 4 to 5 weeks old were used as the test animals and about 10^6 cells/0.2 ml of Ehrlich carcinoma were implanted intraperitoneally.
In FIG. 4, the suspension was administered at doses of 25, 50 and 100 mg/Kg/day to treated groups and the 0.85% biological sodium chloride solution alone was administered to a control group. Parenthesized values shown for each group are average values of the number of living days and the survival ratio.

Data set [7] is described as follows: continuous administration for 10 days, toxicity. The data set is classed as in vivo. The text has this: (§4) In general, Ehrlich ascites tumor is highly sensitive to conventional carcinostatic agents of cytotoxic type, and Ehrlich solid tumor is relatively lowly sensitive to most of these known carcinostatic agents. […] Thus, the composition of the present invention is very unique in the point that it is efficacious against a broadrange of carcinomatous diseases.

The test system of data set [8] is malignant cells of adenomatous carcinoma, squamous cell carninoma, sarcoma and the like, especially undifferentiated tumors. The data set is described as follows: clinical experiments, sensitivity of malignant cells. The following applies: in words. The data set is classed as in vivo, human.
From the text: as §4

Data set [9] is described as follows: excretion from the living body. The data set is classed as in vivo. The following applies: in words.
In the next data set the test system is lymphosarcoma. The data set is described as follows: effect against lymphosarcoma. The following applies: in words.
The test system of a further data set is tumor cells of mice. In words: control of tumor cells of mice. As to conditions: in words.

Several values for one entry are separate records, joined by “and”; a condition that tells them apart may be missing. Equal values may be shown once. Entries after “also recorded” stand apart in the source; their conditions may differ.

As for `O=Cc1ccccc1` [benzaldehyde], the adenine incorporation with E. coli W3110 (adenine, benzaldehyde 10^-1 PPM) was determined as 3135 CPM; in the data set on E. coli W3110 (adenine, benzaldehyde 10^-2 PPM), 3684 CPM; in the data set on E. coli W3110 (adenine, benzaldehyde 10^-3 PPM), 4246 CPM. Further, the alanine incorporation in the data set on E. coli W3110 (alanine, benzaldehyde 10^-1 PPM) is 5283 CPM; in the data set with E. coli W3110 (alanine, benzaldehyde 10^-2 PPM), 5438 CPM; in the data set with E. coli W3110 (alanine, benzaldehyde 10^-3 PPM), 5838 CPM. Further, the glutamic acid incorporation in the data set on E. coli W3110 (glutamic acid, benzaldehyde 10^-1 PPM) amounted to 2842 CPM; with E. coli W3110 (glutamic acid, benzaldehyde 10^-2 PPM) it was 2779 CPM; in the data set with E. coli W3110 (glutamic acid, benzaldehyde 10^-3 PPM), 3203 CPM. In addition, the thymine incorporation in the data set with E. coli W3110 (thymine, benzaldehyde 10^-1 PPM) was determined as 1399 CPM; with E. coli W3110 (thymine, benzaldehyde 10^-2 PPM), 1566 CPM; in the data set on E. coli W3110 (thymine, benzaldehyde 10^-3 PPM) it was 1891 CPM. Besides, the tryptophane incorporation with E. coli S (benzaldehyde 10^-1 PPM) is listed as 1076 CPM; in the data set on E. coli S (benzaldehyde 10^-2 PPM), 915 CPM; in the data set with E. coli S (benzaldehyde 10^-3 PPM), 808 CPM. The “influence on uptake of nucleic acids and other amino acids” value in the data set on Escherichia coli [1] (substrates other than tryptophane) is “incorporation of nucleic acids and other amino acids is inhibited; also recorded: exerts an uptake inhibiting action in the case of other substrates”. In addition, in the data set on Escherichia coli [1] (tryptophane), the “influence on uptake of tryptophane” value was “the incorporation is promoted; also recorded: the uptake of tryptophane increases with the lapse of time; also recorded: specifically promotes the uptake of tryptophane among substrates”. For the same compound, in the data set with Escherichia coli [2], the “damage to cell membranes” value is reported as “causes no damage to cell membranes”. In addition, the “outflow of incorporated substrate” value in the data set on Escherichia coli [2] was “outflow of the substrate is remarkably reduced and is not changed from outflow of the substrate in the control system”. Besides, the “Average Weight (tumor)” value with Adeno-carcinoma 755 [3] (10 ppm suspension s.c. for 9 days, control 5.8 g) came to 3.8 g; in the data set on Adeno-carcinoma 755 [4] (3.5% suspension 0.1 ml i.p. for 9 days, control 5.90 g) it was 3.55 g; with Ehrlich carcinoma [5] (10 mg/Kg i.p. for 9 days, 11th day, control 2.79 g) it was 1.24 g. Also, the “Tumor Weight” value is 4.6 g and 2.6 g and 4.1 g in the data set on Adeno-carcinoma 755 [3] (individual animal, 10 ppm suspension 0.5 to 1.0 ml s.c. once a day for 9 days); 3.3 g and 3.4 g and 4.0 g and 3.5 g in the data set with Adeno-carcinoma 755 [4] (individual animal, 3.5% suspension 0.1 ml i.p. once a day for 9 days); 3.8 g and 2.4 g and 2.2 g and 0.8 g and 0.6 g and 0.5 g and 0.4 g and 0.3 g in the data set on Ehrlich carcinoma [5] (individual animal, 10 mg/Kg i.p. once a day for 9 days, 11th day, 10 mg/kg). For the same compound, the “increase of the body weight during the test (average)” value in the data set with Ehrlich carcinoma [5] (10 mg/Kg i.p. for 9 days, 10 mice, same in control group) is on record as 3.5 g. For the same compound, in the data set with Ehrlich carcinoma [5] (solid versus ascites tumor, in words), the “effect on Ehrlich solid tumor” value is “acts strongly on the solid tumor rather than the ascites tumor; also recorded: prominent effect on Erlich solid tumor”. The survival effect with Ehrlich carcinoma [6] (50 mg/Kg per day i.p.) is on record as 15.4%; in the data set with Ehrlich carcinoma [6] (100 mg/Kg per day i.p.), 26.9%. In data set [7] (administered continuously for 10 days), the “daily dose without bad influences such as toxicity on the host” value was “up to 200 mg/Kg”. For the same compound, in data set [7] (in vivo, ip, continuous intraperitoneal injection for 10 days, read-out: daily dose at which no toxicity is observed), the NOAEL at 240 h is no less than 200 mg/kg/day. The side effects entry in data set [7] (in words) is on record as “causes no side effects”. In [8], the “sensitivity of malignant cells” value is given as “highly sensitive to benzaldehyde”. In addition, the “excretion from the living body” value in data set [9] is on record as “promptly excreted from the living body; also recorded: promptly extracted from living bodies”. Moreover, the effect against lymphosarcoma result in the data set with lymphosarcoma was “effective against lymphosarcoma”. For the same compound, the “control of tumor cells of mice” value with tumor cells of mice was “effective for controlling tumor cells of mice”.

Consider colistin [reference compound], for which, in the data set on E. coli W3110 (adenine, colistin 5 PPM), the adenine incorporation came to 1066 CPM. For the same compound, in the data set with E. coli W3110 (adenine, colistin 5 PPM, control 100%), the “adenine incorporation, ratio (%) to the control” value is on record as 23%. Further, the alanine incorporation in the data set on E. coli W3110 (alanine, colistin 5 PPM) is 1009 CPM. Further, in the data set with E. coli W3110 (alanine, colistin 5 PPM, control 100%), the “alanine incorporation, ratio (%) to the control” value is 17%. In the data set on E. coli W3110 (glutamic acid, colistin 5 PPM), this compound showed a glutamic acid incorporation of 670 CPM. For the same compound, the “glutamic acid incorporation, ratio (%) to the control” value with E. coli W3110 (glutamic acid, colistin 5 PPM, control 100%) stood at 16%. The compound further came in with a thymine incorporation in the data set with E. coli W3110 (thymine, colistin 5 PPM) of 333 CPM. Besides, in the data set on E. coli W3110 (thymine, colistin 5 PPM, control 100%), the “thymine incorporation, ratio (%) to the control” value came out at 16%. Also, the tryptophane incorporation in the data set on E. coli S (colistin 5 PPM) is given as 439 CPM. Also, the “tryptophane incorporation, ratio (%) to the control” value in the data set with E. coli S (colistin 5 PPM, control 100%) is listed as 65%. Besides, in the data set with Escherichia coli [2], the “damage to cell membranes” value is recorded as “cell membranes are destroyed” and the “outflow of incorporated substrate” value is “outflow of the substrate is extreme”.

The record behind these values is US4983636A, “Composition and method of treating selected malignant conditions” (Rikagaku Kenkyusho Wako, priority 1976, dated 1991).
